According to PubChem BioAssay (NCI):
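These data come from cells grown in 96-well plates and exposed to compound for 48 hours at five concentrations. GI50 is the concentration that inhibits growth by half. TGI is the concentration that stops growth completely.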

Key:
Assay in all cases: growth of human tumour cells (NCI), 48 h
786-0 renal = test system: 786-0 renal
A498 renal = test system: A498 renal
A549 NSCLC = test system: A549 NSCLC
ACHN renal = test system: ACHN renal
BT-549 breast = test system: BT-549 breast
CAKI-1 renal = test system: CAKI-1 renal
CCRF-CEM leukemia = test system: CCRF-CEM leukemia
COLO 205 colon = test system: COLO 205 colon
DU-145 prostate = test system: DU-145 prostate
EKVX NSCLC = test system: EKVX NSCLC
HCC-2998 colon = test system: HCC-2998 colon
HCT-116 colon = test system: HCT-116 colon
HCT-15 colon = test system: HCT-15 colon
HL-60(TB) leukemia = test system: HL-60(TB) leukemia
HOP-62 NSCLC = test system: HOP-62 NSCLC
HOP-92 NSCLC = test system: HOP-92 NSCLC
HS 578T breast = test system: HS 578T breast
HT29 colon = test system: HT29 colon
IGROV1 ovarian = test system: IGROV1 ovarian
K-562 leukemia = test system: K-562 leukemia
KM12 colon = test system: KM12 colon
LOX IMVI melanoma = test system: LOX IMVI melanoma
M14 melanoma = test system: M14 melanoma
MALME-3M melanoma = test system: MALME-3M melanoma
MCF7 breast = test system: MCF7 breast
MDA-MB-231 breast = test system: MDA-MB-231 breast
MDA-MB-435 = test system: MDA-MB-435
MOLT-4 leukemia = test system: MOLT-4 leukemia
NCI-H226 lung = test system: NCI-H226 lung
NCI-H23 lung = test system: NCI-H23 lung
NCI-H460 lung = test system: NCI-H460 lung
NCI-H522 lung = test system: NCI-H522 lung
NCI/ADR-RES ovarian = test system: NCI/ADR-RES ovarian
OVCAR-3 ovarian = test system: OVCAR-3 ovarian
OVCAR-4 ovarian = test system: OVCAR-4 ovarian
OVCAR-5 ovarian = test system: OVCAR-5 ovarian
OVCAR-8 ovarian = test system: OVCAR-8 ovarian
PC-3 prostate = test system: PC-3 prostate
RPMI-8226 leukemia = test system: RPMI-8226 leukemia
RXF 393 renal = test system: RXF 393 renal
SF-268 CNS = test system: SF-268 CNS
SF-295 CNS = test system: SF-295 CNS
SF-539 CNS = test system: SF-539 CNS
SK-MEL-2 melanoma = test system: SK-MEL-2 melanoma
SK-MEL-28 melanoma = test system: SK-MEL-28 melanoma
SK-MEL-5 melanoma = test system: SK-MEL-5 melanoma
SK-OV-3 ovarian = test system: SK-OV-3 ovarian
SN12C renal = test system: SN12C renal
SNB-19 CNS = test system: SNB-19 CNS
SNB-75 CNS = test system: SNB-75 CNS
SR leukemia = test system: SR leukemia
SW-620 colon = test system: SW-620 colon
T-47D breast = test system: T-47D breast
TK-10 renal = test system: TK-10 renal
U251 CNS = test system: U251 CNS
UACC-257 melanoma = test system: UACC-257 melanoma
UACC-62 melanoma = test system: UACC-62 melanoma
UO-31 renal = test system: UO-31 renal

## Cc1cnc(Nc2ccc(N3CCN(C)CC3)cc2)nc1Nc1ccc(Cl)c(NS(=O)(=O)C(C)(C)C)c1
786-0 renal
  GI50: 208 nM
  TGI: 1820 nM
A498 renal
  GI50: 178 nM
  TGI: 881 nM
A549 NSCLC
  GI50: 339 nM
  TGI: 1810 nM
ACHN renal
  GI50: 90.2 nM
  TGI: 2200 nM
BT-549 breast
  GI50: 872 nM
  TGI: 2590 nM
CAKI-1 renal
  GI50: 62.1 nM
  TGI: 2090 nM
CCRF-CEM leukemia
  GI50: 180 nM
  TGI: 6830 nM
COLO 205 colon
  GI50: 94 nM
  TGI: 543 nM
DU-145 prostate
  GI50: 303 nM
  TGI: 11000 nM
EKVX NSCLC
  GI50: 311 nM
  TGI: 4400 nM
HCC-2998 colon
  GI50: 383 nM
  TGI: 1840 nM
HCT-116 colon
  GI50: 91.7 nM
  TGI: 2730 nM
HCT-15 colon
  GI50: 168 nM
  TGI: 3180 nM
HL-60(TB) leukemia
  GI50: 103 nM
  TGI: 1020 nM
HOP-62 NSCLC
  GI50: 262 nM
  TGI: 3730 nM
HOP-92 NSCLC
  GI50: 170 nM
  TGI: 1590 nM
HS 578T breast
  GI50: 128 nM
  TGI: 1400 nM
HT29 colon
  GI50: 96.1 nM
  TGI: 4190 nM
IGROV1 ovarian
  GI50: 154 nM
  TGI: 2660 nM
K-562 leukemia
  GI50: 245 nM
  TGI: 7740 nM
KM12 colon
  GI50: 94.3 nM
  TGI: 5390 nM
LOX IMVI melanoma
  GI50: 169 nM
  TGI: 866 nM
M14 melanoma
  GI50: 112 nM
  TGI: 1780 nM
MALME-3M melanoma
  GI50: 690 nM
  TGI: 2620 nM
MCF7 breast
  GI50: 79.5 nM
  TGI: 2490 nM
MDA-MB-231 breast
  GI50: 159 nM
  TGI: 2230 nM
MDA-MB-435
  GI50: 170 nM
  TGI: 10700 nM
MOLT-4 leukemia
  GI50: 419 nM
  TGI: 11600 nM
NCI-H226 lung
  GI50: 230 nM
  TGI: 2090 nM
NCI-H23 lung
  GI50: 379 nM
  TGI: 6550 nM
NCI-H460 lung
  GI50: 267 nM
  TGI: 10300 nM
NCI-H522 lung
  GI50: 73 nM
  TGI: 1600 nM
NCI/ADR-RES ovarian
  GI50: 511 nM
  TGI: 6090 nM
OVCAR-3 ovarian
  GI50: 324 nM
  TGI: 2930 nM
OVCAR-4 ovarian
  GI50: 180 nM
  TGI: 23700 nM
OVCAR-5 ovarian
  GI50: 219 nM
  TGI: 13400 nM
OVCAR-8 ovarian
  GI50: 652 nM
  TGI: 8100 nM
PC-3 prostate
  GI50: 408 nM
  TGI: 16900 nM
RPMI-8226 leukemia
  GI50: 136 nM
  TGI: 1310 nM
RXF 393 renal
  GI50: 136 nM
  TGI: 959 nM
SF-268 CNS
  GI50: 474 nM
  TGI: 3540 nM
SF-295 CNS
  GI50: 524 nM
  TGI: 2950 nM
SF-539 CNS
  GI50: 434 nM
  TGI: 1840 nM
SK-MEL-2 melanoma
  GI50: 310 nM
  TGI: 3760 nM
SK-MEL-28 melanoma
  GI50: 772 nM
  TGI: 2730 nM
SK-MEL-5 melanoma
  GI50: 312 nM
  TGI: 1510 nM
SK-OV-3 ovarian
  GI50: 97.2 nM
  TGI: 808 nM
SN12C renal
  GI50: 542 nM
  TGI: 12000 nM
SNB-19 CNS
  GI50: 1340 nM
  TGI: 18500 nM
SNB-75 CNS
  GI50: < 25.6 nM
  TGI: 828 nM
SR leukemia
  GI50: 92 nM
  TGI: 6260 nM
SW-620 colon
  GI50: 232 nM
  TGI: 5450 nM
T-47D breast
  GI50: 349 nM
  TGI: 15500 nM
TK-10 renal
  GI50: 63.8 nM
  TGI: 936 nM
U251 CNS
  GI50: 840 nM
  TGI: 11700 nM
UACC-257 melanoma
  GI50: 1360 nM
  TGI: 2880 nM
UACC-62 melanoma
  GI50: 80.8 nM
  TGI: 1680 nM
UO-31 renal
  GI50: 87.7 nM
  TGI: 1290 nM
